Test system: S. aureus ATCC 6538
Assay: Microbicidal effect of CPC on S. aureus cultures (log reduction in count)
Format: cell-based, Staphylococcus aureus
Conditions: incubated 10 minutes at 37° C
Experimental: The microbicidal effect of cetyl pyridinium chloride (CPC) was tested using a strain of Staphylococcus aureus. Specifically, S. aureus ATCC 6538 cultures were placed in three different test tubes. Different concentrations (0.1%, 0.01% or 0.001%) of CPC were added to each of the test tubes. The mixture of CPC and S. aureus was incubated for 10 minutes on a tube rotator at 37° C. The results are shown below in Table 1 as the log reduction in S. aureus count.

Question: With `CCCCCCCCCCCCCCCC[n+]1ccccc1` [CPC, cetyl pyridinium chloride] as the compound, how does the “Log reduction in S. aureus count” value (CPC concentration 0.001%) read?
Answer: The value was 3.4.

Question: And the “Log reduction in S. aureus count” value (CPC concentration 0.01%)?
Answer: The value was 5.3.

Question: What about the “Log reduction in S. aureus count” value (CPC concentration 0.1%) of the same compound?
Answer: Its value is 5.3.

Source: US20070054834A1, “Quaternary ammonium halides for treatment of infectious conditions” (NanoBio Corporation, priority 2005, published 2007)
